Data: PubChem BioAssay AID1963965 (Molecular Pharmacology Branch, DTP, NCI, 2024)
One block for each compound: values may come before it.

Test system: 996289-038-R-J1-PDC spheroid viability
Test: Anticancer human tumor 996289-038-R-J1-PDC patient-derived colon adenocarcinoma cell line growth inhibition [PI3K]
Settings: spheroids with HUVEC and MSC; for IC50: curve of first compound; for viability, T/C: stronger effect = lower value
How it was run: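 Three cell types, namely tumor cells, endothelial cells and mesenchymal stem cells, formed each spheroid. Combinations with four PI3K inhibitors were screened at clinically achievable concentrations decreasing by half-log, and spheroid viability was recorded.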

[1] = second compound 0.0316 µM, first compound 0.0316 µM
[2] = second compound 0.0316 µM, first compound 0.1 µM
[3] = second compound 0.0316 µM, first compound 0.316 µM
[4] = second compound 0.0316 µM, first compound 1 µM
[5] = second compound 0.1 µM, first compound 0.0316 µM
[6] = second compound 0.1 µM, first compound 0.1 µM
[7] = second compound 0.1 µM, first compound 0.316 µM
[8] = second compound 0.1 µM, first compound 1 µM
[9] = second compound 0.316 µM, first compound 0.0316 µM
[10] = second compound 0.316 µM, first compound 0.1 µM
[11] = second compound 0.316 µM, first compound 0.316 µM
[12] = second compound 0.316 µM, first compound 1 µM
[13] = second compound 1 µM, first compound 0.0316 µM
[14] = second compound 1 µM, first compound 0.1 µM
[15] = second compound 1 µM, first compound 0.316 µM
[16] = second compound 1 µM, first compound 1 µM
[17] = second compound 3.16 µM, first compound 0.0316 µM
[18] = second compound 3.16 µM, first compound 0.1 µM
[19] = second compound 3.16 µM, first compound 0.316 µM
[20] = second compound 3.16 µM, first compound 1 µM
[21] = second compound 10 µM, first compound 0.0316 µM
[22] = second compound 10 µM, first compound 0.1 µM
[23] = second compound 10 µM, first compound 0.316 µM
[24] = second compound 10 µM, first compound 1 µM
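Also: spheroids exposed to compounds for seven days before viability read.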
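For viability, T/C in this document: luminescence used as a proxy for viable cell amount; percent viability relative to DMSO vehicle control as 100%.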

- IC50 (second compound 0.0316 µM): > 1 µM
- IC50 (second compound 0.1 µM): > 1 µM
- IC50 (second compound 0.316 µM): > 1 µM
- IC50 (second compound 1 µM): > 1 µM
- IC50 (second compound 3.16 µM): 0.0376 µM
- IC50 (second compound 10 µM): < 0.00316 µM
Structure (SMILES): CCN1CCN(Cc2ccc(Nc3ncc(F)c(-c4cc(F)c5nc(C)n(C(C)C)c5c4)n3)nc2)CC1 + Cc1nc(NC(=O)N2CCCC2C(N)=O)sc1-c1ccnc(C(C)(C)C(F)(F)F)c1
- viability, T/C (second compound 0.0316 µM, first compound 0.00316 µM): 84.2%
- viability, T/C (second compound 0.0316 µM, first compound 0.01 µM): 72%
- viability, T/C [1]: 83.4%
- viability, T/C [2]: 78.7%
- viability, T/C [3]: 72.7%
- viability, T/C [4]: 79.7%
- viability, T/C (second compound 0.1 µM, first compound 0.00316 µM): 89.8%
- viability, T/C (second compound 0.1 µM, first compound 0.01 µM): 83%
- viability, T/C [5]: 79.7%
- viability, T/C [6]: 75.4%
- viability, T/C [7]: 75.2%
- viability, T/C [8]: 67.3%
- viability, T/C (second compound 0.316 µM, first compound 0.00316 µM): 85.9%
- viability, T/C (second compound 0.316 µM, first compound 0.01 µM): 74.4%
- viability, T/C [9]: 70.7%
- viability, T/C [10]: 63%
- viability, T/C [11]: 63.1%
- viability, T/C [12]: 59.2%
- viability, T/C (second compound 1 µM, first compound 0.00316 µM): 75.8%
- viability, T/C (second compound 1 µM, first compound 0.01 µM): 74.2%
- viability, T/C [13]: 56.7%
- viability, T/C [14]: 54.8%
- viability, T/C [15]: 58.4%
- viability, T/C [16]: 50.9%
- viability, T/C (second compound 3.16 µM, first compound 0.00316 µM): 51.4%
- viability, T/C (second compound 3.16 µM, first compound 0.01 µM): 56.2%
- viability, T/C [17]: 51.4%
- viability, T/C [18]: 46.1%
- viability, T/C [19]: 43.7%
- viability, T/C [20]: 44.2%
- viability, T/C (second compound 10 µM, first compound 0.00316 µM): 37.5%
- viability, T/C (second compound 10 µM, first compound 0.01 µM): 40%
- viability, T/C [21]: 33.9%
- viability, T/C [22]: 33.6%
- viability, T/C [23]: 29.6%
- viability, T/C [24]: 27.9%

- IC50 (second compound 0.0316 µM): > 10 µM
- IC50 (second compound 0.1 µM): > 10 µM
- IC50 (second compound 0.316 µM): > 10 µM
- IC50 (second compound 1 µM): > 10 µM
- IC50 (second compound 3.16 µM): > 10 µM
- IC50 (second compound 10 µM): > 10 µM
Structure (SMILES): CNC(=O)c1ccc(N2C(=S)N(c3ccc(C#N)c(C(F)(F)F)c3)C(=O)C2(C)C)cc1F + CC(Nc1ncnc2nc[nH]c12)c1cc2cccc(Cl)c2c(=O)n1-c1ccccc1
- viability, T/C [1]: 96.5%
- viability, T/C [2]: 104%
- viability, T/C [3]: 110%
- viability, T/C [4]: 110%
- viability, T/C (second compound 0.0316 µM, first compound 3.16 µM): 118%
- viability, T/C (second compound 0.0316 µM, first compound 10 µM): 119%
- viability, T/C [5]: 130%
- viability, T/C [6]: 98.4%
- viability, T/C [7]: 93.6%
- viability, T/C [8]: 88.6%
- viability, T/C (second compound 0.1 µM, first compound 3.16 µM): 105%
- viability, T/C (second compound 0.1 µM, first compound 10 µM): 108%
- viability, T/C [9]: 107%
- viability, T/C [10]: 106%
- viability, T/C [11]: 102%
- viability, T/C [12]: 110%
- viability, T/C (second compound 0.316 µM, first compound 3.16 µM): 119%
- viability, T/C (second compound 0.316 µM, first compound 10 µM): 103%
- viability, T/C [13]: 94.7%
- viability, T/C [14]: 112%
- viability, T/C [15]: 98.2%
- viability, T/C [16]: 102%
- viability, T/C (second compound 1 µM, first compound 3.16 µM): 114%
- viability, T/C (second compound 1 µM, first compound 10 µM): 96.9%
- viability, T/C [17]: 96.9%
- viability, T/C [18]: 102%
- viability, T/C [19]: 89.6%
- viability, T/C [20]: 109%
- viability, T/C (second compound 3.16 µM, first compound 3.16 µM): 102%
- viability, T/C (second compound 3.16 µM, first compound 10 µM): 110%
- viability, T/C [21]: 98.9%
- viability, T/C [22]: 101%
- viability, T/C [23]: 83.1%
- viability, T/C [24]: 104%
- viability, T/C (second compound 10 µM, first compound 3.16 µM): 98.8%
- viability, T/C (second compound 10 µM, first compound 10 µM): 97.2%
